According to US20240197652A1, “KETAMINE IN THE TREATMENT OF […]” (Awakn LS Europe Holdings Limited, priority 2021, published 2024):

Assays:
Format in all cases: in vivo, human
[1] = Plasma ketamine, HNK and norketamine levels, binge eating disorder subjects (Example 8); details: analyte = label; for peak plasma concentration: 100 mg racemic ketamine sublingual; for time of peak plasma concentration: post-administration of 100 mg racemic ketamine sublingual
Description: A study was completed on the use of ketamine to treat binge eating disorder. Subjects were assessed for binge eating disorder using the Binge Eating Scale (BES), and included if they received a BES score greater than 15. Three subjects in total were included (BE1-BE3, and interchangeably on FIGS. 5 and 6 as BED1-BED3, these being the same subjects). All three were administered sublingual lozenges comprising 100 mg of racemic ketamine.
Blood samples were collected from all three subjects. Blood samples were analysed to determine ketamine and ketamine metabolite levels, as well as the hormones leptin and ghrelin. Self-report measures were conducted.
The treatment protocol commenced in substantially the same way as disclosed in the ketamine in subjects with gambling disorder study completed in EXAMPLE 7, with the exceptions outlined as follows: No behavioural tasks were completed. Blood samples collected every 10 minutes from the time of administration to 90 minutes post-administration were additionally analysed for leptin and ghrelin. Self-report measures included the Binge Eating Scale, the Adult Attachment Interview (AAI), a 20 question interview about the subject's recollections of their childhood (Sykes and Turner, 2015); the Childhood Trauma Questionnaire; the Morningness-Eveningness Questionnaire (MEQ), a 19-item questionnaire designed to assess when a respondent prefers to wake up or start sleep (American Thoracic Society, 2022); the DSM-5 Binge Eating Disorder diagnostic criteria; and the SPSRQ.

[2] = Plasma ketamine, HNK and norketamine levels, gaming disorder subjects (Example 9); details: analyte = label; for peak plasma concentration: 100 mg racemic ketamine sublingual; for time of peak plasma concentration: post-administration of 100 mg racemic ketamine sublingual
Description: A study was completed on ketamine to treat gaming disorder. Subjects were assessed for gaming disorder using the Internet Gaming Disorder Scale (IGDS) and were included if they received an IGDS score greater than 3. Three subjects in total were included (IG1-IG3). All three were administered sublingual lozenges comprising 100 mg of racemic ketamine.
(§1) Blood samples were collected from all three subjects. Blood samples were analysed to determine ketamine and ketamine metabolite levels. Assessments were conducted as below.
The treatment protocol commenced in the same manner as disclosed in the ketamine in subjects with gambling disorder study completed in EXAMPLE 7, with the exceptions as follow: No behavioural tasks were completed. Self-report measures completed during EXAMPLE 9 included Social Phobia Inventory (SPIN), the Craving for Gaming Questionnaire (CGQ), and Generalised Anxiety Disorder-7 (GAD-7) the Sensitivity to Reward and Punishment Scale, and the Childhood Trauma Questionnaire, the Morningness-Eveningness Questionnaire (MEQ).

[3] = Plasma ketamine, HNK and norketamine levels, CSBD subjects (Example 10); details: analyte = label; for peak plasma concentration: 100 mg racemic ketamine sublingual; for time of peak plasma concentration: post-administration of 100 mg racemic ketamine sublingual
Description: A study was completed on the use of ketamine to treat CSBD. Subjects were assessed for CSBD using the Problematic Pornography Use Scale (PPUS) and were included if they received an PPUS score greater than 3. Three subjects in total were included (CSB1-CSB3). All three were administered sublingual lozenges comprising 100 mg of racemic ketamine.
as §1
The treatment protocol commenced in the same way as disclosed in the ketamine in subjects with gambling disorder study completed in EXAMPLE 7, with the exceptions outlined as follows: No behavioural tasks were completed. Self-report measures completed during EXAMPLE 10 included the Emotional Intimacy Measure, the Childhood Trauma Questionnaire, the Generalised Anxiety Disorder-7 (GAD-7), the Morningness-Eveningness Questionnaire (MEQ), and the Problematic Pornography Questionnaire (PPQ), the Acceptance and Action Questionnaire, and the Psychological and Interpersonal Relationship Scales (PAIRS).

[4] = Mean plasma ketamine, HNK and norketamine, all subjects of Examples 7-10; details: 100 mg racemic ketamine sublingual, analyte = label; for concentration at 10 min / concentration at 20 min / concentration at 30 min / concentration at 40 min / concentration at 50 min / concentration at 60 min / concentration at 70 min / concentration at 80 min / concentration at 90 min: human, plasma, other: sublingual
Description: Blood samples were collected every 10 minutes, from 0 minutes (the time of administration) to 90 minutes post-administration. Blood samples at each time point were analysed to determine plasma levels of (2S,6S;2R,6R)-Hydroxynorketamine (HNK).
FIGS. 11-13 illustrate ketamine, HNK, and norketamine levels, respectively, for all subjects of EXAMPLES 7-10, while FIG. 14 illustrates the mean plasma levels of ketamine, HNK, and norketamine for all subjects of EXAMPLES 7-10. Results indicated a mean plasma concentration of ketamine of 104.87 ng/ml at 10 minutes, 230.11 ng/ml at 20 minutes, 267.08 ng/ml at 30 minutes, 271.62 ng/ml at 40 minutes, 288.48 ng/ml at 50 minutes, 272.42 ng/ml at 60 minutes, 263.40 ng/ml at 70 minutes, 227.50 ng/ml at 80 minutes, and 176.91 ng/ml at 90 minutes. Mean HNK was 0 at 10 minutes, 12.22 ng/ml at 20 minutes, 56.73 ng/ml at 30 minutes, 79.10 ng/ml at 40 minutes, 126.20 ng/ml at 50 minutes, 198.87 ng/ml at 60 minutes, 221.08 ng/ml at 70 minutes, 209.14 ng/ml at 80 minutes, and 217.32 ng/ml at 90 minutes. Mean norketamine was 1.92 at 10 minutes, 57.39 ng/ml at 20 minutes, 141.78 ng/ml at 30 minutes, 286.02 ng/ml at 40 minutes, 505.15 ng/ml at 50 minutes, 646.73 ng/ml at 60 minutes, 750.57 ng/ml at 70 minutes, 723.79 ng/ml at 80 minutes, and 653.94 ng/ml at 90 minutes.

[5] = subject BE1 (no data at 30 minutes)

SMILES | peak plasma concentration [1, 5] | time of peak plasma concentration [1, 5] [min] | peak plasma concentration ([1]; subject BE2) | time of peak plasma concentration ([1]; subject BE2) [min] | peak plasma concentration ([1]; subject BE3) | time of peak plasma concentration ([1]; subject BE3) [min] | peak plasma concentration ([2]; subject IG1) | time of peak plasma concentration ([2]; subject IG1) [min] | peak plasma concentration ([2]; subject IG2) | time of peak plasma concentration ([2]; subject IG2) [min] | peak plasma concentration ([2]; subject IG3) | time of peak plasma concentration ([2]; subject IG3) [min] | peak plasma concentration ([3]; subject CSB1) | time of peak plasma concentration ([3]; subject CSB1) [min] | peak plasma concentration ([3]; subject CSB2) | time of peak plasma concentration ([3]; subject CSB2) [min] | peak plasma concentration ([3]; subject CSB3) | time of peak plasma concentration ([3]; subject CSB3) [min] | concentration at 10 min ([4]; 10 minutes post-administration) [ng/mL] | concentration at 20 min ([4]; 20 minutes post-administration) [ng/mL] | further results
NC1(c2ccccc2Cl)CCCCC1=O (racemic) [Norketamine, (R,S)-norketamine] | about 81 ng/ml | 90 | about 685 ng/ml | 40 | about 975 ng/mL | 60 | about 627 ng/ml | 70 | about 1,040 ng/ml | 50 | about 1,116 ng/mL | 60 | about 1,069 ng/ml | 80 | about 785 ng/ml | 70 | about 923 ng/mL | 70 | 1.92 | 57.4 | concentration at 30 min ([4]; 30 minutes post-administration): 142 ng/mL; concentration at 40 min ([4]; 40 minutes post-administration): 286 ng/mL; concentration at 50 min ([4]; 50 minutes post-administration): 505 ng/mL; concentration at 60 min ([4]; 60 minutes post-administration): 647 ng/mL; concentration at 70 min ([4]; 70 minutes post-administration): 751 ng/mL; concentration at 80 min ([4]; 80 minutes post-administration): 724 ng/mL; concentration at 90 min ([4]; 90 minutes post-administration): 654 ng/mL
CNC1(c2ccccc2Cl)CCCCC1=O (racemic) [ketamine, 2-(2-chlorophenyl)-2-(methylamino)-cyclohexanone] | about 270 ng/ml | 20 | about 339 ng/ml | 20 | about 208 ng/mL | 60 | about 390 ng/ml | 50 | about 301 ng/ml | 50 | about 670 ng/mL | 50 | about 368 ng/ml | 70 | about 285 ng/ml | 30 | about 395 ng/mL | 50 | 105 | 230 | concentration at 30 min ([4]; 30 minutes post-administration): 267 ng/mL; concentration at 40 min ([4]; 40 minutes post-administration): 272 ng/mL; concentration at 50 min ([4]; 50 minutes post-administration): 288 ng/mL; concentration at 60 min ([4]; 60 minutes post-administration): 272 ng/mL; concentration at 70 min ([4]; 70 minutes post-administration): 263 ng/mL; concentration at 80 min ([4]; 80 minutes post-administration): 228 ng/mL; concentration at 90 min ([4]; 90 minutes post-administration): 177 ng/mL
N[C@@]1(c2ccccc2Cl)CCC[C@@H](O)C1=O [HNK, (2S,6S;2R,6R)-hydroxynorketamine] | about 53 ng/ml | 90 | about 108 ng/ml | 80 | about 244 ng/mL | 90 | about 287 ng/ml | 90 | about 279 ng/ml | 90 | about 407 ng/mL | 60 | about 136 ng/ml | 80 | about 135 ng/ml | 90 | about 314 ng/mL | 70 |  |  | mean plasma concentration ([4]; 10 minutes post-administration): 0 ng/mL; mean plasma concentration ([4]; 20 minutes post-administration): 12.22 ng/mL; mean plasma concentration ([4]; 30 minutes post-administration): 56.73 ng/mL; mean plasma concentration ([4]; 40 minutes post-administration): 79.10 ng/mL; mean plasma concentration ([4]; 50 minutes post-administration): 126.20 ng/mL; mean plasma concentration ([4]; 60 minutes post-administration): 198.87 ng/mL; mean plasma concentration ([4]; 70 minutes post-administration): 221.08 ng/mL; mean plasma concentration ([4]; 80 minutes post-administration): 209.14 ng/mL; mean plasma concentration ([4]; 90 minutes post-administration): 217.32 ng/mL
